# Measurements: patent US12576057B2, “Antibacterial and biofilm formation-inhibiting composition containing myristoleic acid as active ingredient” (RESEARCH COOPERATION FOUNDATION OF YEUNGNAM UNIVERSITY, priority 2020, dated 2026)
# Like-named read-outs stand apart in the source and are kept apart here.
# What was measured:
# C. acnes ATCC 6919 [1] = test: Crystal violet biofilm formation assay, C. acnes ATCC 6919; format: cell-based, Cutibacterium acnes; conditions: for inhibition at 1 µg/mL / inhibition at 20 µg/mL: Cutibacterium acnes, ATCC6919, 96 h; for inhibition at 1 µg/mL: 1 μg/ml, 96 h, 96-well polystyrene plate, read-out: inhibitory effect on biofilm formation; for inhibition at 20 µg/mL / change in biofilm formation: 20 μg/ml; for inhibition at 20 µg/mL: 96 h culture in RCM, 96-well plate; for change in biofilm formation: 96 h culture
# Description: 3. Crystal Violet Film Assay
# Crystal violet assay was performed by the previously reported method (Lee et al., 2017b) to quantify biofilm formation.
# To quantify the biofilm, planktonic growth was eliminated, the plate was washed three times with distilled water, and the biofilm attached to the well was stained with 0.1% crystal violet for 20 minutes. Thereafter, the plate was washed three times with sterile distilled water, and crystal violet was extracted using 95% ethanol, absorbance was measured at 570 nm using Multiskan EX microplate reader (Thermo Fisher Scientific, Waltham, MA), and the result was shown as an average value of at least 12 replicate wells.
# Percentage for inhibition rate represents relative biofilm formation (100×biofilm formation with chemical/biofilm formation of untreated control).
# C. acnes ATCC 6919 [2] = test: Rapid killing (time-kill) experiment; format: cell-based, Cutibacterium acnes; conditions: 100 μg/ml
# Description: 4. Analysis of Rapid Killing of Acne Bacteria Using Fatty Acids To determine the killing time by fatty acids, a time-kill experiment was performed. Briefly, cultures of C. acnes ATCC 6919 grown in RCM broth (BD Difco™, Fisher Scientific, Pittsburgh, USA) at 37° C. under anaerobic conditions for 96 hours were diluted in a ratio of 1:50 with fresh RCM medium. The samples were treated with myristoleic acid (50 and 100 μg/ml) or lauric acid (50 and 100 μg/ml) and cultured at 37° C. under anaerobic conditions while stirring. At each time point, aliquots of treated cells were collected, and after performing appropriate dilutions, cells were smeared on RCM agar plates and incubated at 37° C. for 96 hours, followed by enumeration of CFUs, wherein each experiment was repeated.
# C. acnes ATCC 6919 [3] = test: Quantification of extracellular polymeric substance (EPS); format: cell-based, Cutibacterium acnes; conditions: 10 μg/ml, 96 h culture
# Description: 6. Quantification of Extracellular Polymeric Substance (EPS)
# For EPS quantification, C. acnes treated with control and myristoleic acid was cultured at 37° C. for 96 hours. After culture, the culture was centrifuged at 8,228×g for 10 minutes, and the supernatant was separated.
# The cell pellet was washed with sterile PBS to remove the culture supernatant which is free of residual cells. 15 ml of an isotonic solution (10 mM Tris/HCl, pH 8.0, 10 mM EDTA, 2.5% NaCl) was added to the cell pellet, and the mixed wells were culture at 4° C. overnight.
# After overnight culture, the cell suspension was shaken to be mixed for 5 minutes, followed by centrifugation at 8,228×g for 10 minutes. The supernatant containing EPS bound with the cells was separated from the cells. Cold ethanol was added to the supernatant in a ratio of 1:3 and left at −20° C. overnight.
# After collecting the precipitated EPS by centrifugation at 4° C., 18,514×g for 30 minutes, the pellet was washed with 70% ethanol and dried. The dried EPS was weighed, and inhibition of EPS production by fatty acids was calculated by the following formula (Sivasankar et al., 2016). ([Control wt−Treated wt/Control wt]×100) 7. Hydrophobicity Analysis: Microbial Adherence to Hydrocarbon (MATH)
# C. acnes ATCC 6919 [4] = test: Hydrophobicity analysis: microbial adherence to hydrocarbon (MATH); format: cell-based, Cutibacterium acnes; conditions: for change of cell hydrophobicity: 10 and 20 μg/ml fatty acids, 96 h
# Description: MATH analysis (Rosenberg et al., 1980) was performed to identify the effect of fatty acids on the attachability of C. acnes to hydrocarbons (toluene) and the cell surface hydrophobicity of C. acnes.
# C. acnes were grown without fatty acids for 96 hours under anaerobic conditions at 37° C.
# The OD values of all treated and untreated cultures were adjusted to OD 0.5±0.05, and an equal volume of toluene was added to 3 ml of the cell suspension, followed by stirring for 60 seconds.
# After stirring, incubation of an aqueous solution was performed overnight at room temperature to completely remove the trace solvent. OD600 in the aqueous solution was observed and cell surface hydrophobicity (CSH) was evaluated by hydrophobicity index (HI) using the following formula. (HI=[1−(OD600 after vortexing/OD600 before vortexing)]×100) (Mattos-Guaraldi et al., 1999). 8. Identification of Anti-Viral Effect and Cytotoxicity of Myristoleic Acid in Nematode Model
# S. aureus ATCC 6538 = test: Biofilm formation of S. aureus ATCC 6538; format: cell-based, Staphylococcus aureus
# Excerpt: (§1) The antibacterial and anti-biofilm activity of myristoleic acid against five Staphylococcus aureus strains was identified, including two methicillin-sensitive S. aureus strains (MSSA; ATCC 25923 and ATCC 6538), two methicillin-resistant S. aureus strains (MRSA, MW2, and ATCC 33591), and S. epidermidis strains.
# C. acnes [5] = conditions: after 72 hours, previous report; cited from earlier work
# C. acnes ATCC 6919 [6] = test: Planktonic cell growth and MIC identification; format: cell-based, Cutibacterium acnes; conditions: for MIC: after 96 hours of culture
# Description: 2. Measurement of Planktonic Cell Growth and MIC Identification In order to identify the effect of fatty acids on the planktonic growth of C. acnes, a culture cultured for 96 hours in a 96-well plate was re-transplanted after undergoing dilution in a ratio of 1:50 and then treated with fatty acids of different concentrations. Plates were cultured under anaerobic condition at 37° C. and maintained using an anaerobic pouch (Fisher Scientific, Pittsburgh, USA). After 96 hours of culture, cell turbidity was checked at 600 nm using Optizen 2120UV spectrophotometer ([…] Co. Ltd., Daejeon, Korea).
# C. acnes [7] = test: Scanning electron microscopy of biofilm / EPS; format: cell-based, Cutibacterium acnes; conditions: 10 μg/ml
# Description: 5. Scanning Electron Microscopy
# Production of extracellular polymeric substance (EPS) was detected by electron microscopy (SEM) by the previously reported method (Lee et al., 2011).
# Briefly, C. acnes cells were inoculated in 96-well plates under conditions with or without fatty acids, and a nylon filter (0.4×0.4 mm square) was added to each well. Biofilms were grown on the nylon filters by culturing together for 96 hours without stirring under anaerobic conditions at 37° C.
# Then, the biofilm cells on the piece of nylon filter were immobilized with 2.5% glutaraldehyde and 2% formaldehyde for 24 hours and sequentially immobilized with osmium tetroxide, followed by dehydration with ethanol series (50, 70, 80, 90, 95 and 100%) and isoamyl acetate.
# After critical point drying, the cells on the filter were stopper-coated with to palladium/gold, and observed under an S-4100 scanning electron microscope (Hitachi, Tokyo, Japan) at a magnification of ×1000 to ×10,000 using an acceleration voltage of 15 kV.
# [8] = system: S. aureus ATCC 6538, S. aureus ATCC 25923, MRSA MW2, MRSA ATCC 33591, S. epidermidis ATCC 14990; test: Biofilm formation of five Staphylococcus strains; format: cell-based, Staphylococcus aureus, Staphylococcus epidermidis
# Excerpt: as §1
# Staphylococcus strains = test: MIC against Staphylococcus strains; format: cell-based, Staphylococcus aureus
# Excerpt: as §1
# [9] = system: C. elegans infected with C. acnes ATCC 6919; test: C. elegans killing assay with C. acnes infection; format: in vivo; conditions: 10 μg/ml, 4 days; 20% survived without treatment
# Description: C. elegans killing assay was performed with a slight modification of the previously reported method (Beceiro et al., 2014). Briefly, assays were performed in 96-well plates.
# Young adult nematodes (20-30) [fer-15(b26);fem-1(hc17)] were transferred to each well contained in an M9 solution. The untreated control and fatty acid-treated C. acnes cells were each added to separate wells containing 20 to 30 nematodes and incubated at 25° C.
# Nematodes solely exposed to E. coli OP50 at CFU of 1×10^6 cells/ml were used as a control.
# Viability was identified by exposing to LED or UV LED light for 10 to 30 seconds using the iRiS™ Digital Cell Imaging System (Logos BioSystems, South Korea) by the previously reported method (Rajasekharan et al., 2018). The experiments were repeated three times.
# uninfected C. elegans = test: Chemical toxicity in uninfected C. elegans; format: in vivo; conditions: increased to 500 μg/ml for 5 days, uninfected nematodes
# Description: The toxicity of myristoleic acid was identified in […].
# […] was treated with myristoleic acid with various doses, and survival was checked every day for 5 consecutive days.
# In addition, in order to identify the chemical toxicity of myristoleic acid, uninfected nematodes were exposed to different concentrations of myristoleic acid.
# [10] = Cutibacterium acnes, ATCC6919, 96 h, read-out: MIC
SMILES,EPS production (C. acnes ATCC 6919 [3]),change of cell hydrophobicity (C. acnes ATCC 6919 [4]),inhibition at 20 µg/mL (C. acnes ATCC 6919 [1]) [%],further results
"CCCCCCCCCCCC(=O)O [lauric acid, reference compound]",significant reduction in EPS production,reduced cell hydrophobicity the most,–,inhibition at 1 µg/mL (C. acnes ATCC 6919 [1]): ≥ 80%; killing of C. acnes cells (C. acnes ATCC 6919 [2]): did not effectively kill; anti-biofilm activity (S. aureus ATCC 6538): weak anti-biofilm activity; MIC (C. acnes [5]): 60 µg/mL
CCCCCCCCCCC(=O)O [undecanoic acid],significant reduction in EPS production,–,> 60,MIC (C. acnes ATCC 6919 [6]; [10]): 20 to 200 µg/mL
"CCCCCCCCCCCCCCCCCCCCCCC(=O)O [trichoic acid, tricosanoic acid]",no significant changes,a little change in hydrophobicity,> 60,–
CCCCCCCC/C=C\CCCCCCCC(=O)O [oleic acid],–,–,> 60,–
CCCCCCCCCCCCCC(=O)O [myristic acid],–,–,> 60,–
CC/C=C\C/C=C\C/C=C\CCCCCCCC(=O)O [linolenic acid],–,–,> 60,–
CCCCC/C=C\C/C=C\C/C=C\C/C=C\CCCC(=O)O [arachidonic acid],–,–,> 60,–
"CCCCC(=O)O [valeric acid, pentanoic acid]",–,–,–,change in biofilm formation (C. acnes ATCC 6919 [1]): very subtle changes in biofilm formation
CCCCCCCCCCCCCCCC(=O)O [palmitic acid],–,–,> 60,–
"CCCCCC/C=C\CCCCCCCC(=O)O [cis-9-hexadecenoic acid, cis-9 hexadecenoic acid]",no significant changes,a little change in hydrophobicity,–,change in biofilm formation (C. acnes ATCC 6919 [1]): very subtle changes in biofilm formation
CCCCCCC(=O)O [heptanoic acid],no significant changes,–,–,change in biofilm formation (C. acnes ATCC 6919 [1]): very subtle changes in biofilm formation
CCCCC/C=C\C/C=C\CCCCCCCC(=O)O [linoleic acid],–,reduced cell hydrophobicity the most,> 60,–
CCCCCCCCCCCCCCCCCC(=O)O [stearic acid],no significant changes,a little change in hydrophobicity,> 60,–
CCCCCCCCCC(=O)O [decanoic acid],no significant changes,–,> 60,MIC (C. acnes ATCC 6919 [6]; [10]): 20 to 200 µg/mL
CCCCCCCCCCCCCCCCC(=O)O [heptadecanoic acid],–,a little change in hydrophobicity,> 60,–
CCCC/C=C\CCCCCCCC(=O)O [myristoleic acid],significant reduction in EPS production,reduced cell hydrophobicity the most,–,"C. acnes biofilm formation (C. acnes ATCC 6919 [1]; <10 μg/ml): significantly inhibited; inhibition at 1 µg/mL (C. acnes ATCC 6919 [1]): ≥ 80%; MIC of myristoleic acid relative to lauric acid (times lower) (C. acnes ATCC 6919 [6]; 20 μg/ml vs 100 μg/ml): 5 times; MIC (C. acnes ATCC 6919 [6]; [10]): 20 to 200 µg/mL; MIC (C. acnes ATCC 6919 [6]): 20 µg/mL; planktonic cell growth (C. acnes ATCC 6919 [6]; increased to 10 μg/ml): did not reduce planktonic cell growth; C. acnes cells killed (C. acnes ATCC 6919 [2]; in 1 hour): ≥ 99.999%; EPS production by SEM analysis (C. acnes [7]): reduction in EPS production; hydrophobicity index (cells made hydrophilic) (C. acnes ATCC 6919 [4]; 10 μg/ml): > 20%; dose-dependent effect on hydrophobicity (C. acnes ATCC 6919 [4]; 5, 10, 15, or 20 μg/ml): clear-cut decrease in hydrophobicity in a dose-dependent manner; anti-biofilm activity ([8]; 5 Staphylococcus strains): strong anti-biofilm activity; inhibition at 50 µg/mL ([8]; ALL5, 50 μg/ml, all 5 strains, read-out: biofilm formation inhibitory effect): > 90%; MIC (Staphylococcus strains): 150 µg/mL; survival of C. elegans infected with C. acnes [9]: 70%; toxicity to C. elegans (uninfected C. elegans): did not show toxicity"
CCCCCCCC/C=C\CCCCCCCCCCCC(=O)O [erucic acid],–,–,> 60,–
CCCCCCCCC(=O)O [nonanoic acid],–,–,> 60,–
